Where two headings read alike, the source gives them in different places. Some results are limits rather than exact numbers.

The subject of assay [1] is phosphorylation of AKT on Ser473 as a readout of the PI3K pathway in SKBR3 (PIK3CA WT) cells. The experiment in a line: PI3K pathway activation assay, pAKT Ser473 HTRF, SKBR3 cells. The conditions noted are these: two hours of treatment. In kind it is cell-based. As to the method:
The inhibitory activity of compounds was evaluated by measuring phosphorylation of AKT on Ser473 as a readout of the PI3K pathway using HTRF (CisBio catalog number: 64AKSPE). These studies were conducted in the T-47D (heterozygous PIK3CA H1047R) and SKBR3 (PIK3CA WT) cell lines. Cells were maintained in a 37° C. incubator at 5% CO2 in the following media: T-47D: RPMI 1640, ATCC© Modification (Gibco, A10491-01) supplemented with 10% v/v FBS (Gibco, 26140-079), 1% penicillin streptomycin (Gibco, 15140-122), and 7.4 ug/mL insulin (MilliporeSigma, I9278); SKBR3: McCoy's 5a (Modified) Medium (Gibco, 16600-082) supplemented with 10% v/v FBS (Gibco, 26140-079). Cells were seeded in 384-well plates at a density of 4,000 cells/well. Compounds dissolved in DMSO were added using a digital dispense (D300E, Tecan) 10-point serial dilution. After two hours of treatment, cells were lysed for thirty minutes and then incubated with detection reagents per HTRF kit material and manufacturer's instructions. Fluorescence signal was measured with a multimode plate reader (Envision 2105, Perkin Elmer). Fluorescent signal was normalized to background and DMSO controls to obtain percent inhibition/activity for each compound.
Background: Time-resolved FRET reads energy transfer from a long-lived donor to a nearby acceptor.

For assay [2], the system named is phosphorylation of AKT on Ser473 as a readout of the PI3K pathway in T-47D (heterozygous PIK3CA H1047R) cells. Kind of assay: PI3K pathway activation assay, pAKT Ser473 HTRF, T-47D cells. In kind it is cell-based. The conditions noted are these: two hours of treatment. In short, it runs like this:
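pAKT Ser473 measured by HTRF in SKBR3 (PIK3CA WT) and T-47D (PIK3CA H1047R) cells, 4,000/well. Signal normalised to background and DMSO controls as percent inhibition.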

A word on the IC50: it is the point on the concentration scale where inhibition reaches its midpoint. With `Cc1cc(C(C)Nc2ccccc2C(=O)O)c2nc(N3Cc4ccccc4C3)n(C)c(=O)c2c1` (stereo not drawn) [Example 1, 2-((1-(2-(isoindolin-2-yl)-3,6-dimethyl-4-oxo-3,4-dihydroquinazolin-8-yl)ethyl)amino)benzoic acid], the IC50 is more than 10 µM in assay [1] (Homo sapiens, SK-BR-3, 2 h) and less than 0.5 µM in assay [2] (Homo sapiens, T47D, 2 h).

Turning to `CC(Nc1ccccc1C(=O)O)c1cc(F)cc2c(=O)n(C)c(N3CC4CC4C3)nc12` (stereo not drawn) [Example 49, 2-((1-(2-(3-azabicyclo[3.1.0]hexan-3-yl)-6-fluoro-3-methyl-4-oxo-3,4-dihydro-quinazolin-8-yl)ethyl)amino)benzoic acid], the IC50 in assay [1] (Homo sapiens, SK-BR-3, 2 h) is more than 10 µM; in assay [2] (Homo sapiens, T47D, 2 h) it was less than 0.5 µM.

`Cc1cc(C(C)Nc2ccccc2C(=O)O)c2nc(N3Cc4cccnc4C3)n(C)c(=O)c2c1` (single isomer, unassigned) [Example 67, 2-((1-(2-(5,7-Dihydro-6H-pyrrolo[3,4-b]pyridin-6-yl)-3,6-dimethyl-4-oxo-3,4-dihydroquinazolin-8-yl)ethyl)amino)benzoic acid]: the IC50 in assay [1] (Homo sapiens, SK-BR-3, 2 h) was more than 10 µM; in assay [2] (Homo sapiens, T47D, 2 h), less than 0.5 µM.

`CC(=O)N1CCN(c2nc3c(C(C)Nc4ccccc4C(=O)O)cc(C)cc3c(=O)n2C)CC1` (stereo not drawn) [Example 46, 2-((1-(2-(4-acetylpiperazin-1-yl)-3,6-dimethyl-4-oxo-3,4-dihydroquinazolin-8-yl)ethyl)amino)benzoic acid]: the IC50 was more than 10 µM in assay [1] (Homo sapiens, SK-BR-3, 2 h) and 0.5 to 10 µM in assay [2] (Homo sapiens, T47D, 2 h).

In the case of `Cc1ccc(C(=O)O)c(NC(C)c2cc(C)cc3c(=O)n(C)c(N4Cc5ccccc5C4)nc23)c1` (stereo not drawn) [Example 69, 2-((1-(2-(Isoindolin-2-yl)-3,6-dimethyl-4-oxo-3,4-dihydroquinazolin-8-yl)ethyl)amino)-4-methylbenzoic], the IC50 in assay [1] (Homo sapiens, SK-BR-3, 2 h) is more than 10 µM; in assay [2] (Homo sapiens, T47D, 2 h), 0.5 to 10 µM.

For `CC(Nc1ccccc1C(=O)O)c1cc(Cl)cc2c(=O)n(C)c(N3CC4CC4C3)nc12` (single isomer, unassigned) [Example 105, 2-((1-(2-(3-Azabicyclo[3.1.0]hexan-3-yl)-6-chloro-3-methyl-4-oxo-3,4-dihydroquinazolin-8-yl)ethyl)amino)benzoic acid], the IC50 in assay [1] (Homo sapiens, SK-BR-3, 2 h) is more than 10 µM; in assay [2] (Homo sapiens, T47D, 2 h), less than 0.5 µM.

For `Cc1cc(C(C)Nc2ccccc2S(N)(=O)=O)c2nc(N3Cc4ccccc4C3)n(C)c(=O)c2c1` (stereo not drawn) [Example 6, 2-((1-(2-(isoindolin-2-yl)-3,6-dimethyl-4-oxo-3,4-dihydroquinazolin-8-yl)ethyl)amino)benzenesulfonamide], the IC50 in assay [1] (Homo sapiens, SK-BR-3, 2 h) is more than 10 µM; in assay [2] (Homo sapiens, T47D, 2 h) it was less than 0.5 µM.

As for `Cc1cc(C(C)Nc2ccccc2C(=O)O)c2nc(N(C)C)n(C)c(=O)c2c1` (stereo not drawn) [Example 54, 2-[1-[2-(dimethylamino)-3,6-dimethyl-4-oxoquinazolin-8-yl]ethylamino]benzoic acid], the IC50 in assay [1] (Homo sapiens, SK-BR-3, 2 h) is more than 10 µM; in assay [2] (Homo sapiens, T47D, 2 h), 0.5 to 10 µM.

For the compound `Cc1cc(C(C)Nc2ccccc2C(=O)O)c2nc(N3CCC4(CC4)C3)n(C)c(=O)c2c1` (stereo not drawn) [Example 39, 2-[1-[2-(5-azaspiro[2.4]heptan-5-yl)-3,6-dimethyl-4-oxoquinazolin-8-yl]ethyl-amino]benzoic acid], the IC50 in assay [1] (Homo sapiens, SK-BR-3, 2 h) is more than 10 µM; in assay [2] (Homo sapiens, T47D, 2 h), less than 0.5 µM.

With `COc1ccc(NC(C)c2cc(C)cc3c(=O)n(C)c(N4CC5CC5C4)nc23)c(C(=O)O)n1` (stereo not drawn) [Example 119, 3-[1-[2-(3-Azabicyclo[3.1.0]hexan-3-yl)-3,6-dimethyl-4-oxoquinazolin-8-yl]ethylamino]-6-methoxypyridine-2-carboxylic acid], the IC50 in assay [1] (Homo sapiens, SK-BR-3, 2 h) was more than 10 µM; in assay [2] (Homo sapiens, T47D, 2 h), 0.5 to 10 µM.

As to `Cc1cc(C(C)Nc2ccc(F)c(F)c2C(=O)O)c2nc(N3Cc4ccccc4C3)n(CCCF)c(=O)c2c1` (stereo not drawn) [Example 20, 2,3-difluoro-6-((1-(3-(3-fluoropropyl)-2-(isoindolin-2-yl)-6-methyl-4-oxo-3,4-dihydroquinazolin-8-yl)ethyl)amino)benzoic acid], the IC50 in assay [1] (Homo sapiens, SK-BR-3, 2 h) was more than 10 µM; in assay [2] (Homo sapiens, T47D, 2 h), less than 0.5 µM.

Take `Cc1cc(C(C)Nc2ccccc2C(=O)O)c2nc(N3Cc4ccccc4C3)n(C(C)C)c(=O)c2c1` (stereo not drawn) [Example 21, 2-((1-(2-(isoindolin-2-yl)-3-isopropyl-6-methyl-4-oxo-3,4-dihydroquinazolin-8-yl)ethyl)amino)benzoic acid]: the IC50 was more than 10 µM in assay [1] (Homo sapiens, SK-BR-3, 2 h) and less than 0.5 µM in assay [2] (Homo sapiens, T47D, 2 h).

On to `Cc1cc(C(C)Nc2ccccc2-c2nnn[nH]2)c2nc(N3Cc4ccccc4C3)n(C)c(=O)c2c1` (stereo not drawn) [Example 9, 8-(1-((2-(1H-tetrazol-5-yl)phenyl)amino)ethyl)-2-(isoindolin-2-yl)-3,6-dimethylquinazolin-4(3H)-one], for which the IC50 was more than 10 µM in assay [1] (Homo sapiens, SK-BR-3, 2 h) and 0.5 to 10 µM in assay [2] (Homo sapiens, T47D, 2 h).

`Cc1cc(C(C)Nc2ccccc2C(=O)O)c2nc(N3C[C@@H]4C(C(=O)N(C)C5CCC5)[C@@H]4C3)n(C)c(=O)c2c1` (stereo partly drawn) [Example 82, 2-((1-(2-((1R,5S,6R)-6-(Cyclobutyl(methyl)carbamoyl)-3-azabicyclo[3.1.0]hexan-3-yl)-3,6-dimethyl-4-oxo-3,4-dihydroquinazolin-8-yl)ethyl)amino)benzoic acid]: the IC50 is more than 10 µM in assay [1] and less than 0.5 µM in assay [2] (read-out: T47D pAKT IC50).

As for `[2H]C([2H])([2H])n1c(N2CC3CC3C2)nc2c(C(C)Nc3ccccc3C(=O)O)cc(C)cc2c1=O` (single isomer, unassigned) [Example 104, 2-((1-(2-(3-Azabicyclo[3.1.0]hexan-3-yl)-6-methyl-3-(methyl-d3)-4-oxo-3,4-dihydroquinazolin-8-yl)ethyl)amino)benzoic acid], the IC50 in assay [1] (Homo sapiens, SK-BR-3, 2 h) is more than 10 µM; in assay [2] (Homo sapiens, T47D, 2 h), less than 0.5 µM.

As to `Cc1cc(C(C)Nc2ccccc2C(=O)O)c2nc(N3CC4CCC3C4)n(C)c(=O)c2c1` (single isomer, unassigned) [Example 100, 2-((1-(2-(2-Azabicyclo[2.2.1]heptan-2-yl)-3,6-dimethyl-4-oxo-3,4-dihydro-quinazolin-8-yl)ethyl)amino)benzoic acid], the IC50 was more than 10 µM in assay [1] and less than 0.5 µM in assay [2] (read-out: T47D pAKT IC50).

Take `Cc1cc(C(C)Nc2ccccc2C(N)=O)c2nc(N3Cc4ccccc4C3)n(C)c(=O)c2c1` (stereo not drawn) [Example 4, 2-((1-(2-(isoindolin-2-yl)-3,6-dimethyl-4-oxo-3,4-dihydroquinazolin-8-yl)ethyl)amino)benzamide]: the IC50 in assay [1] (Homo sapiens, SK-BR-3, 2 h) is more than 10 µM; in assay [2] (Homo sapiens, T47D, 2 h), 0.5 to 10 µM.

As for `COC(=O)NC1[C@H]2CN(c3nc4c(C(C)Nc5ccccc5C(=O)O)cc(C)cc4c(=O)n3C)C[C@@H]12` (stereo partly drawn) [Example 58, 2-((1-(2-((1R,5S,6s)-6-((methoxycarbonyl)amino)-3-azabicyclo[3.1.0]hexan-3-yl)-3,6-dimethyl-4-oxo-3,4-dihydroquinazolin-8-yl)ethyl)amino)benzoic acid], the IC50 in assay [1] (Homo sapiens, SK-BR-3, 2 h) is more than 10 µM; in assay [2] (Homo sapiens, T47D, 2 h) it was less than 0.5 µM.

In the case of `Cc1cc(C(C)Nc2ccccc2C(=O)NO)c2nc(N3Cc4ccccc4C3)n(C)c(=O)c2c1` (stereo not drawn) [Example 10, N-Hydroxy-2-((1-(2-(isoindolin-2-yl)-3,6-dimethyl-4-oxo-3,4-dihydroquinazolin-8-yl)ethyl)amino)benzamide], the IC50 is more than 10 µM in assay [1] (Homo sapiens, SK-BR-3, 2 h) and 0.5 to 10 µM in assay [2] (Homo sapiens, T47D, 2 h).

With `Cc1cc(C(C)Nc2ccc(C)nc2C(=O)O)c2nc(N3CC4CC4C3)n(C)c(=O)c2c1` (stereo not drawn) [Example 120, 3-[1-[2-(3-Azabicyclo[3.1.0]hexan-3-yl)-3,6-dimethyl-4-oxoquinazolin-8-yl]ethylamino]-6-methylpyridine-2-carboxylic acid], the IC50 in assay [1] (Homo sapiens, SK-BR-3, 2 h) is more than 10 µM; in assay [2] (Homo sapiens, T47D, 2 h), 0.5 to 10 µM.

With `Cc1cc(C(C)Nc2ccc(F)cc2C(=O)O)c2nc(N3CC4CC4C3)n(C)c(=O)c2c1` (stereo not drawn) [Example 123, 2-[1-[2-(3-Azabicyclo[3.1.0]hexan-3-yl)-3,6-dimethyl-4-oxoquinazolin-8-yl]ethylamino]-5-fluorobenzoic acid], the IC50 in assay [1] (Homo sapiens, SK-BR-3, 2 h) is more than 10 µM; in assay [2] (Homo sapiens, T47D, 2 h), less than 0.5 µM.

(Values after US20240124422A1, “MUTANT PI3K-ALPHA INHIBITORS AND THEIR USE AS PHARMACEUTICALS” (Prelude Therapeutics Incorporated, priority 2022, published 2024).)
